{
  "source": "patent EP1200406B1",
  "about": "“CYCLIC AMIDES AND IMIDES HAVING SELECTIVE ANTAGONIST ACTIVITY AT ALPHA-1D ADRENERGIC RECEPTOR” (RECORDATI INDUSTRIA CHIMICA E FARMACEUTICA S.p.a., priority 1999, dated 2001)",
  "data": [
    {"target": "T1, human recombinant α1d adrenoceptor (Homo sapiens, UniProt P25100)", "T1 construct": "expressed in transfected cells; host or cells: CHO cells (membranes)", "T1 sequence (P25100 1-572)": "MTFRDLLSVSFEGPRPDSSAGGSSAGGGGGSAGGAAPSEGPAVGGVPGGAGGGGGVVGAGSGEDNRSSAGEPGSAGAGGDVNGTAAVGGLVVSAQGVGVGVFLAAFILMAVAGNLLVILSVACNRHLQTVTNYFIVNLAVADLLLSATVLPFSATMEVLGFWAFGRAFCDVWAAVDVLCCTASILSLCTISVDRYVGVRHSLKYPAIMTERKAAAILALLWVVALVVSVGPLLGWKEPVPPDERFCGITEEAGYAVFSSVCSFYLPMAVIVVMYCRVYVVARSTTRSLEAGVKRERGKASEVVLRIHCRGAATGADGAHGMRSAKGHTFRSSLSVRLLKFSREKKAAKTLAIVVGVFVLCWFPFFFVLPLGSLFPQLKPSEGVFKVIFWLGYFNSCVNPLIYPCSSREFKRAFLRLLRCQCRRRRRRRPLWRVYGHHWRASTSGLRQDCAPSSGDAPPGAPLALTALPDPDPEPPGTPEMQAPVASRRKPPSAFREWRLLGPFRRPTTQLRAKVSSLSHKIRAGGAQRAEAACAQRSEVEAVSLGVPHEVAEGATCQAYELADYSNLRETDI", "test": "Radioligand binding ([3H]prazosin) on membranes of CHO cells expressing cloned α1d adrenoceptor", "conditions": "human cloned receptor, CHO cell membranes, 0.2 nM [3H]prazosin; read-out: Affinity (Ki) α1d", "protocol": "(§1) The determination of affinity for cloned subtypes of human α1 adrenergic receptors was performed in membranes from CHO cells (chinese hamster ovary cells) transfected by electroporation with DNA expressing the genes encoding each α1-adrenoceptor subtype, namely α1a, α1b and α1d.. Cloning and stable expression of the human α1-adrenoceptor gene were performed as previously described (Testa et al., Pharmacol. Comm. 6, 79-86 (1995)). CHO cell membranes were incubated in […] Tris pH 7.4 with 0.2 nM [^3H]prazosin, in a final volume of 1.02 ml for 30 minutes at 25°C, in the absence or presence of competing drugs (1 pM-10 µM). Non-specific binding was determined in the presence of 10 µM phentolamine. Incubation was stopped by addition of ice-cold Tris buffer and rapid filtration through 0.2% polyethyleneimine pretreated Schleicher & Schuell GF52 filters. […] The HeLa cells were grown as monolayers in Dulbecco's modified Eagle's medium (DMEM), supplemented with 10% foetal calf serum and gentamicin (100 µg/ml), 5% CO2, at 37°C. The cells were detached from the growth flask at 95% confluence by a cell scraper and were lysed in ice-cold 5 mM Tris and 5-mM EDTA buffer (pH 7.4). The homogenates were centrifuged at 40000 x g x 20 minutes and the membranes were re-suspended in a small volume of ice-cold 5 mM Tris and 5-mM EDTA buffer (pH 7.4) and immediately frozen and stored at -70°C until use. On the experiment day, the cell membranes were re-suspended in a buffer containing 50 mM Tris (pH 7.4), 2.5 mM MgCl2, 10 µM pargyline (Fargin et al., Nature 335, 358-360 (1988)). […] The incubation was stopped by addition of ice-cold Tris buffer and rapid filtration through 0.2%-polyethyleneimine-pretreated Schleicher & Schuell filters. The inhibition of specific binding of the radioligands by the drugs was analysed to estimate the IC50 value by using the non-linear curve-fitting programme Allfit (De Lean et al., Am. J. Physiol. 235, E97-E102 (1978)). The IC50 value was converted to an affinity constant (Ki) by the equation of Cheng & Prusoff (Biochem. Pharmacol. 22, 3099-3108 (1973)). Data were expressed as mean of Ki.", "units": {"Ki": "nM"}, "values": [
      {"smiles": "O=C1CC2(CCC2)CC(=O)N1CCN1CCN(c2cc(Cl)ccc2Cl)CC1", "note": "[Example 15, 7-{2-[4-(2,5-Dichlorophenyl)-1-piperazinyl]-ethyl}-7-azaspiro[3.5]nonane-6,8-dione]", "Ki": 2.65},
      {"smiles": "O=C1CC2(CCCC2)CC(=O)N1CCN1CCC(c2cc(Cl)ccc2Cl)CC1", "note": "[Example 17, 8-{2-[4-(2,5-Dichlorophenyl)-1-piperidinyl]-ethyl}-8-azaspiro[4.5]decane-7,9-dione]", "Ki": 1.5},
      {"smiles": "Cc1ccc(F)c(N2CCN(CCN3C(=O)CC4(CCCC4)CC3=O)CC2)c1", "note": "[Example 4, 8-{2-[4-(2-Fluoro-5-methylphenyl)-1-piperazinyl]-ethyl}-8-azaspiro[4.5]decane-7,9-dione]", "Ki": 2.38},
      {"smiles": "O=C1CC2(CCCCC2)CC(=O)N1CCN1CCN(c2cc(Cl)ccc2Cl)CC1", "note": "[Example 11, 3-{2-[4-(2,5-Dichlorophenyl)-1-piperazinyl]-ethyl}-3-azaspiro[5.5]undecane-2,4-dione]", "Ki": 2.21},
      {"smiles": "Cc1ccc(C)c(N2CCN(CCN3C(=O)CC4(CCCC4)CC3=O)CC2)c1", "note": "[Example 5, 8-{2-[4-(2,5-Dimethylphenyl)-1-piperazinyl]-ethyl}-8-azaspiro[4.5]decane-7,9-dione]", "Ki": 10.1},
      {"smiles": "O=C1CC2(CCCC2)CC(=O)N1CCN1CCN(c2cc(Br)ccc2Br)CC1", "note": "[Example 7, 8-{2-[4-(2,5-Dibromophenyl)-1-piperazinyl]-ethyl}-8-azaspiro[4.5]decane-7,9-dione]", "Ki": 3.72},
      {"smiles": "O=C1CC2(CCCC2)CC(=O)N1CCN1CCN(c2cc(C(F)(F)F)ccc2F)CC1", "note": "[Example 6, 8-{2-[4-(2-Fluoro-5-trifluoromethylphenyl)-1-piperazinyl]-ethyl}-8-azaspiro[4.5]decane-7,9-dione]", "Ki": 7.56},
      {"smiles": "CCC1(C)CC(=O)N(CCN2CCN(c3cc(Cl)ccc3Cl)CC2)C(=O)C1", "note": "[Example 13, 1-{2-[4-(2,5-Dichlorophenyl)-1-piperazinyl]-ethyl}-4-ethyl-4-methylpiperidinyl-2,6-dione]", "Ki": 1.23},
      {"smiles": "O=C1CC2(CCCC2)CC(=O)N1CCN1CCN(c2cc(F)ccc2Cl)CC1", "note": "[Example 9, 8-{2-[4-(2-Chloro-5-fluorophenyl)-1-piperazinyl]-ethyl}-8-azaspiro[4.5]decane-7,9-dione]", "Ki": 0.18},
      {"smiles": "O=C1CC2(CCCC2)CC(=O)N1CCN1CCN(c2cc(I)ccc2Cl)CC1", "note": "[Example 10, 8-{2-[4-(2-Chloro-5-iodophenyl)-1-piperazinyl]-ethyl}-8-azaspiro[4.5]decane-7,9-dione]", "Ki": 15.3},
      {"smiles": "O=C1CC2(CCCC2)C(=O)N1CCN1CCN(c2cc(Cl)ccc2Cl)CC1", "note": "[Example 14, 2-{2-[4-(2,5-Dichlorophenyl)-1-piperazinyl]-ethyl}-2-azaspiro[4.4]nonane-1,3-dione]", "Ki": 3.11},
      {"smiles": "CN(CCN1C(=O)CC2(CCCC2)CC1=O)CCN(C)c1cc(Cl)ccc1Cl", "note": "[Example 18, N-(2,5-Dichlorophenyl)-N'-{2-(7,9-dioxo-8-azaspiro[4.5]decane-8-yl)-ethyl}-N,N'-dimethyl-1,2-diaminoethane]", "Ki": 16.4},
      {"smiles": "O=C1CC2(CCCC2)CCN1CCN1CCN(c2cc(F)c(F)cc2F)CC1", "note": "[Example 24, 8-{2-[4-(2,4,5-Trifluorophenyl)-1-piperazinyl]-ethyl}-8-azaspiro[4.5]decane-7-one]", "Ki": 0.31},
      {"smiles": "N#Cc1ccc(Cl)cc1N1CCN(CCN2C(=O)CC3(CCCC3)CC2=O)CC1", "note": "[Example 8, 8-{2-[4-(5-Chloro-2-cyanophenyl)-1-piperazinyl]-ethyl}-8-azaspiro[4.5]decane-7,9-dione]", "Ki": 0.2},
      {"smiles": "CC(CN1CCN(c2cc(Cl)ccc2Cl)CC1)N1C(=O)CC2(CCCC2)CC1=O", "note": "(centres unmarked) [Example 16, 8-{2-[4-(2,5-Dichlorophenyl)-1-piperazinyl]-1-methylethyl}-8-azaspiro[4.5]decane-7,9-dione]", "Ki": 0.41}
    ]},
    {"target": "T1, human recombinant α1d adrenoceptor", "test": "Radioligand binding ([3H]prazosin) on membranes of CHO cells expressing cloned α1d adrenoceptor", "conditions": "read-out: Affinity (Ki) α1d", "protocol": "as §1", "units": {"Ki": "nM"}, "values": [
      {"smiles": "O=C1CCCC(=O)N1CCN1CCN(c2cc(Cl)ccc2Cl)CC1", "note": "[Example 2, 1-{2-[4-(2,5-Dichlorophenyl)-1-piperazinyl]-ethyl}-piperidinyl-2,6-dione]", "Ki": 3.25},
      {"smiles": "O=C1CC2(C=CN1CCN1CCN(c3cc(Cl)ccc3Cl)CC1)CCCC2", "note": "[Example 20, 8-{2-[4-(2,5-Dichlorophenyl)-1-piperazinyl]-ethyl}-8-azaspiro[4.5]dec-9,10-en-7-one]", "Ki": 1.43}
    ]}
  ]
}
